Where two headings read alike, the source gives them in different places.
How the values were obtained:
[1] = Propensity to induce observable signs of tendinitis in rats (observation based score); format: in vivo, Male Lewis rats; details: 5µl/hr; for signs of tendinitis: observed daily for 16 days, mean scores >2 significant
Description: The compound of the invention was tested for its propensity to induce observable signs of tendinitis in rats. The tendinitic effect in rats of the compound of the invention ("Compound A") was compared with that of a close structural isomer, namely N^1-[2,2-dimethyl-1S-(pyridin-3-ylcarbamoyl)-propyl]-N^4-hydroxy-2R-isobutyl-3S-hydroxy-succinamide ("Compound B").
Male Lewis rats were used. In each study up to 30 rats were weighed and randomised on bodyweight for group allocation, n=6/group. In each study, a corresponding vehicle group was run to compare with each treatment group.
Compound A was formulated as its mesylate salt, whilst Compound B was formulated as the free base. For Compound A @ 15mg/ml the vehicle was 50% DMSO, 37% 0.1M methane sulphonic acid, 13% sterile water; and @ 30mg/ml the vehicle was 50% DMSO, 37% 0.2M methane sulphonic acid, 13% sterile water. For Compound B @ 15mg/ml the vehicle was 50% DMSO/water.
Alzet (trade mark) osmotic minipumps (2ML2, 14 day, 5µl/hr from Alza Corp., Palo Alto CA 94303), were weighed empty and full to be sure of correct fill volume. Prior to implantation, filled pumps were placed in an incubator at 37°C. All rats were anaesthetized with halothane. Once anaesthetised, the scruff was shaved and disinfected. A longitudinal skin incision, approx 2 cm long, was made on the prepared site and a subcutaneous pocket was made under the skin using a pair of haemostatic forceps. Minipumps were inserted with the exit of the pump facing away from the wound. The incision wound was closed with sutures, and the area around the wound was re-disinfected. Immediately post-operatively, all the rats received analgesic, (Temgesic -trade mark - Reckitt and Colman) 0.1mg/kg s.c. in the flank. On recovery from anaesthesia, the animals were returned to cages containing dry bedding to ensure the wound remained dust free prior to healing. On the day followng surgery, all rats were placed back on standard bedding and housed in groups of 3 to enable more accurate observation of signs of tendinitis.
Following the implantation of mini-pumps, rats were weighed and monitored for the possible onset of tendinitis. Onset and severity of tendinitis was measured by an observation based scoring system (see below). The rats were observed daily for 16 days. Mean scores >2 were considered significant.

[2] = Blood concentration in minipump-dosed rats of the tendinitis study (fluorometric assay); format: in vivo; details: rats of the tendinitis tests; blood samples days 3, 10 and 16 or 17 post implantation
Description: Blood samples were obtained on days 3 and 10 post minipump implantation from rats lightly anaesthetised with halothane via the tail vein. Blood samples (0.5ml) were placed into tubes containing 3.0ml methanol to extract free and bound compound. Blood concentration of Compound A or Compound B was determined by a fluorometric assay using the coumarin peptide substrate Mca-Pro-Leu-Gly-Leu-Dpa-Ala-Arg-NH2 (Mca = (7-methoxycoumarin-4-yl)acetyl, Dpa = N-3-(2,4-dinitrophenyl)-L-2,3-diaminopropyl) (see Knight et. al., FEBS Lett. 1992, 296, 263-266). On either day 16 or 17 post implantation, studies were ended, rats were terminally anaesthetised with halothane and blood samples (0.5ml) were taken by cardiac puncture and the blood concentration of Compound A or Compound B determined.

72 kDa gelatinase = target: T1, 72 kDa gelatinase (Homo sapiens, UniProt P08253); experiment: 72 kDa gelatinase inhibition (14C gelatin, based on Sellers et al); format: biochemical; details: 16 hours at 37°C
T1 construct: endogenous in cells; host or cells: RPMI-7951 cells
T1 sequence (P08253 110-660): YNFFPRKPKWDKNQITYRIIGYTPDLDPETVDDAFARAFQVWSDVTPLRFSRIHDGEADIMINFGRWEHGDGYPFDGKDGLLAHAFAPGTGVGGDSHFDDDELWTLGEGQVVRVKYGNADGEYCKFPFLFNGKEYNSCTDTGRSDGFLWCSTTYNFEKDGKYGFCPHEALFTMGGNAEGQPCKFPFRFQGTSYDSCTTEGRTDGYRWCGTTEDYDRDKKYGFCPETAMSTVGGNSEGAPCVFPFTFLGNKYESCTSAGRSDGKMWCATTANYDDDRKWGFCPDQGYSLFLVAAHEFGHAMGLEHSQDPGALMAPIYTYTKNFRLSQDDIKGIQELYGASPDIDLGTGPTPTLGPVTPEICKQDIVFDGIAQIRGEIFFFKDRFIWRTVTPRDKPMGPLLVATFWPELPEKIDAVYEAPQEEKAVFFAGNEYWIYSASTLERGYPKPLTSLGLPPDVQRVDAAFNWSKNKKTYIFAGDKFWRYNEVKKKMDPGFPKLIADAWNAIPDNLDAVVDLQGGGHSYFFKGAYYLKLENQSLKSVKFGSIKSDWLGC
Description: 72 kDa gelatinase, derived from RPMI-7951 cells was purified by gelatin-agarose chromatography. The enzyme was activated by incubation with aminophenyl mercuric acetate and approximately 0.05 units was incubated with 50µg [^14C]-radiolabelled gelatin in an appropriate buffer for 16 hours at 37'C. At the end of the incubation 50µg bovine serum albumin, together with trichloroacetic acid (final concentration 16%) were added to stop the reaction and to precipitate any undegraded substrate. The reaction tubes were placed on ice for 15 minutes before centrifugation at 10,000g for 15 minutes to sediment the precipitated substrate. A 200µl aliquot of the reaction supernatant was removed and the radioactivity determined by liquid scintillation counting. The effect of the inhibitors was determined by reference to a dose response curve. The IC50 (the concentration of inhibitor required to cause a 50% decrease in enzyme activity) was obtained by fitting a curve to the data and computing the concentration of inhibitor required to achieve 50% inhibition of the enzyme. For each IC50 determination, the effect on gelatinase activity of at least 8 concentrations of the inhibitor were examined. The inhibitors were dissolved and diluted in DMSO.

[3] = Blood concentration over time after gavage, by collagenase inhibitory activity of blood extracts; format: in vivo; details: male rats
Description: The concentration over time of compound of the invention in the blood of laboratory animals following administration of the test compounds was measured. The compound was administered by gavage to 6 male rats (300g) per treatment group. Blood samples were removed by tail venepuncture at 0.5, 1.0, 2.0, 6.0 and 24 hours post administration. 0.4 ml of blood was placed into 4.5ml tubes containing 0.1ml acid citrate dextrose (ACD) as anti-coagulant. For extraction, 3ml methanol was added and the precipitated blood pelletted by centrifugation (30 min at 3000 rpm). A 2ml aliquot of supernatant was removed and concentrated by lyophilisation. The extract was redissolved in 200µl DMSO and a 10µl aliquot assayed for collagenase inhibitory activity. The inhibitory activity in the extracts was determined using the collagenase assay described in Biological Example A above, and the concentration of inhibitor (that is drug plus any active metabolites) obtained by comparison with standard curves. Results are expressed as peak concentration in ng/ml, as area under the curve (AUC) in ng/ml x hours, over 0.5-24 hours, and as AUC in number of IC50's x hours.

[4] = Inhibitory activity in blood after oral administration to marmosets; format: in vivo
[5] = Inhibitory activity in blood after oral administration to healthy human volunteers; format: in vivo
B16 mouse melanoma cells = experiment: B16 mouse melanoma model; format: in vivo, C57/BL6J mice
Text: In this model C57/BL6J mice are inoculated subcutaneously with 10^5 B16 mouse melanoma cells. The tumours are allowed to grow over 18 days and the tumour weight calculated by calliper measurements and the following formula: weight (mg)- length (mm) x width (mm) ö 4. A group of mice (n=19) received the compound, administered via a mini-osmotic pump implanted subcutaneously on the opposite flank to the B16 tumour. The pump was implanted the day before tumour inoculation and the compound was delivered at a dose of 360 µg/day. A control group (n=17) received the appropriate volume of vehicle from identical implanted pumps.

MDA-435 cells = details: study ended day 32
Description: In this model, animals were inoculated with MDA-435 cells (10^6 cells/mouse), the tumours allowed to grow for four days and then the animals were randomised by tumour weight into three treatment groups (n=15 per group). Mini-pumps were surgically implanted on day 5 containing either vehicle or test compound at 15 mg/ml or 60 mg/ml (delivering 180 or 720 µg/mouse/day respectively). The pumps were replaced on day 19 and the study ended on day 32.

[6] = Rat experimental autoimmune neuritis (EAN) model of GBS; format: in vivo
Description: The effect of the compound of the invention was tested in an animal model of GBS Experimental autoimmune neuritis (EAN) is a T cell mediated, autoimmune disorder of the peripheral nervous system. […] EAN can be induced when animals are injected with myelin from peripheral nerves, or with protein components of the myelin such as Protein 0, in adjuvant. EAN lesions occur in the spinal roots and peripheral nerves and are characterised by perivascular mononuclear cell infiltration, demyelination of axons and nerve conduction deficit.
The compound of the invention was tested in a rat EAN model where disease symptoms were induced by injection of peripheral nerve myelin in adjuvant. […]

[7] = Delayed type hypersensitivity (DTH) model of MS; format: in vivo, Male Lewis rats; details: 30mg/kg orally twice daily, mean ± standard error of the mean
interstitial collagenase = interstitial collagenase (Homo sapiens, UniProt P03956); experiment: biochemical
Chain of interstitial collagenase (P03956 100-469, species assumed): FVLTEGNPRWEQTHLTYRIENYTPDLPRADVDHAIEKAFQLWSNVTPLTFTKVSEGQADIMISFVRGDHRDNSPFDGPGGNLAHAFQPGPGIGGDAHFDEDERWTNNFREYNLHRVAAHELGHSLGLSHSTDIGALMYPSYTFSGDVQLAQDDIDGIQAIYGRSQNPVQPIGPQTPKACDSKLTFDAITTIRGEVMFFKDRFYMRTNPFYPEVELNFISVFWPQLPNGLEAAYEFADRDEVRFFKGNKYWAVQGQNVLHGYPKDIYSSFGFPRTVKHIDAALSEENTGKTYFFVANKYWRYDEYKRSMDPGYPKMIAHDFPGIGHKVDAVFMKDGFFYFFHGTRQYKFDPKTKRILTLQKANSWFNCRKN
Description: The potency of the compound of the invention as inhibitors of interstitial collagenase was determined by the procedure of Cawston and Barrett, (Anal. Biochem., 99, 340-345, 1979), whereby a 1mM solution of the compound being tested, or a dilution thereof, was incubated at 37° for 16 hours with collagen and collagenase (buffered with 25mM Hepes, pH 7.5 containing 5mM CaCl2, 0.05% Brij 35 and 0.02% NaN3). The collagen was acetylated ^14C collagen prepared by the method of Cawston and Murphy, (Methods in Enzymology, 80, 711, 1981), hereby incorporated by reference. The samples were centrifuged to sediment undigested collagen, and an aliquot of the radioactive supernatant removed for assay on a scintillation counter as a measure of hydrolysis.

stromelysin-1 = stromelysin-1 (Homo sapiens, UniProt P08254); experiment: biochemical
Chain of stromelysin-1 (P08254 100-477, species assumed): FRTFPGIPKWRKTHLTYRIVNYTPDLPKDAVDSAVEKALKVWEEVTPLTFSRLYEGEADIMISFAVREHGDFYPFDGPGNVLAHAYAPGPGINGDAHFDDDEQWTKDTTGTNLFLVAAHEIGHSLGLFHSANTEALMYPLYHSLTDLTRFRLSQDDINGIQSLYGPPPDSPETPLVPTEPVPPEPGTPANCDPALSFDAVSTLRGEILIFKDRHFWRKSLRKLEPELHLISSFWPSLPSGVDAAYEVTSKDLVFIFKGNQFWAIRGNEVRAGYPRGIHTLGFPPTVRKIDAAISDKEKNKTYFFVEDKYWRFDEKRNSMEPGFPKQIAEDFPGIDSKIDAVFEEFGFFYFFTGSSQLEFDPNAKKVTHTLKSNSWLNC
Description: The potency of the compound of the invention as inhibitors of stromelysin-1 was determined by the procedure of Cawston et al, (Biochem. J., 195, 159-165, 1981), whereby a 1mM solution of the compound being tested, or a dilution thereof, was incubated at 37° for 16 hours with stromelysin and ^14C acetylate casein (buffered with 25mM Hepes, pH 7.5 containing 5mM CaCl2, 0.05% Brij 35 and 0.02% NaN3). The casein was acetylated ^14C casein prepared by the method of Cawston et al (ibid).

[8] = 15mg/ml in osmotic minipump, Compound A as mesylate salt, Compound B as free base

For `CC(C)C[C@@H](C(=O)N[C@H](C(=O)Nc1cccnc1)C(C)(C)C)[C@H](O)C(=O)NO` [Compound B, N^1-[2,2-dimethyl-1S-(pyridin-3-ylcarbamoyl)-propyl]-N^4-hydroxy-2R-isobutyl-3S-hydroxy-succinamide], the signs of tendinitis [1, 8] was “significant signs from day 8 onwards”, the “mean scores (tendinitis)” value ([1]; day 8, 15mg/ml in osmotic minipump) was greater than 2 and the “mean scores (tendinitis)” value ([1]; days 15 and 16, 15mg/ml in osmotic minipump) was “about 6”. For the same molecule, the “plasma exposure from the minipumps” value [2] was “receiving plasma exposure”.
For `CO[C@H](C(=O)NO)[C@@H](CC(C)C)C(=O)N[C@H](C(=O)Nc1ccccn1)C(C)(C)C` [compound of the invention, N^1-[2,2-Dimethyl-1S-(pyridin-2-ylcarbamoyl)-propyl]-N^4-hydroxy-2R-isobutyl-3S-methoxy-succinamide], the IC50 (72 kDa gelatinase) was 70 nM, the “AUC (0.5 - 24h)” value ([3]; AUC in number of IC50's x hours) was 674 n IC50's x h and the “AUC (0.5 - 24h)” value ([3]; drug plus any active metabolites in blood) was 2966 ng/ml x h. The “inhibitory activity in the blood” value [4] was “significant levels of inhibitory activity have been detected”, the “inhibitory activity in the blood” value [5] was “significant levels of inhibitory activity have been detected” and the “weight of the compound-treated tumours” value (B16 mouse melanoma cells; day 18, 360 µg/day via subcutaneous mini-osmotic pump, control 1145 ± 97 mg) was 774 ± 50 mg. For the same molecule, the “reduction of tumour weight” value (B16 mouse melanoma cells; day 18, 360 µg/day, versus vehicle control, p<0.005) was 32%, the plasma level (B16 mouse melanoma cells; end of the study, 360 µg/day via mini-osmotic pump) was 26.8 ± 3.2 ng/mL and the “inhibition of tumour growth” value (MDA-435 cells; 180 µg/mouse/day (15 mg/ml mini-pump)) was 19%. The “inhibition of tumour growth” value (MDA-435 cells; 720 µg/mouse per day (60 mg/ml mini-pump), p<0.005) was 33%, the signs of tendinitis [1, 8] was “no significant signs of tendinitis” and the signs of tendinitis ([1]; 30mg/ml in osmotic minipump, mesylate salt) was “no significant signs of tendinitis”. The clinical symptoms ([6]; given therapeutically day 8-15, 15 or 30 mg/ml at 10 µl/hour, 14 and 28 mg/kg/day) was “reduces clinical symptoms in a dose dependent manner”, the “development of clinical symptoms” value ([6]; treatment day 1-15, minipumps 15 or 30 mg/ml at 5 µl/hour, 7 and 14 mg/kg/day) was “significantly reduces the development of clinical symptoms in a dose-dependent manner” and the “Blood brain barrier leakage” value ([7]; day 5 to day 15 after second BCG injection, p<0.05 vs vehicle) was 2.042±0.487 mm^2. For the same molecule, the T cell infiltration ([7]; OX-22 positive cells, p<0.0001 vs vehicle) was 341.2±21.9 cells/mm^2, the Demyelination ([7]; not statistically significant) was 0.758±0.227 mm^2 and the “MHC class II expression” value ([7]; not statistically significant) was 1.318±0.300 mm^2. For the same molecule, the “plasma exposure from the minipumps” value [2] was “receiving plasma exposure”, the IC50 (interstitial collagenase) was 10 nM and the IC50 (stromelysin-1) was 30 nM.

From patent EP1030842B1, “METALLOPROTEINASE INHIBITORS” (BRITISH BIOTECH PHARMACEUTICALS LIMITED, priority 1997, dated 1999)
